This note sets out measurements from patent US20240262795A1, “PYRAZINE COMPOUNDS AS INHIBITORS OF FLT3” (Biomea Fusion, Inc., priority 2021, published 2024).

Holding throughout (type): cell-based, human
One assay has as its system MOLM-13. The assay can be described thus: Proliferation inhibition, CellTiter-Glo, MOLM-13. The note with it: Homo sapiens, 96 h; MOLM-13 cells, IC50 (4 days), CellTiter-Glo; read-out: MOLM-13 IC50. Put shortly:
(§1)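 About 10,000 cells per well in RPMI-1640 with 10% FBS. Compounds added 2 h after seeding at eight concentrations in duplicate (0.2% DMSO as 100% proliferation), then incubated ~96 h at 37° C, 5% CO2. ATP measured by CellTiter-Glo luminescence; IC50 from four-parameter logistic fit.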

In a further assay the test system is K-562. The experiment in a line: Proliferation inhibition, CellTiter-Glo, K-562. The following applies: Homo sapiens, K562, 96 h; K-562 cells, IC50 (4 days), CellTiter-Glo; read-out: K-562 IC50. Put shortly:
as §1

A further assay relates to MV-4-11. The experiment in a line: Proliferation inhibition, CellTiter-Glo, MV-4-11. The note with it: Homo sapiens, MV4-11, 96 h; MV-4:11 cells, IC50 (4 days), CellTiter-Glo; read-out: MV-4:11 IC50. The method, boiled down:
as §1

Bounds are passed on as bounds.

With `CCc1nc(C(N)=O)c(Nc2ccnc(CCNC(=O)CN(C)C(=O)/C=C/CN3CCC3)c2)nc1CC(C)C` [Compound 604, (E)-3-((2-(2-(2-(4-(azetidin-1-yl)-N-methylbut-2-enamido)acetamido)ethyl)pyridin-4-yl)amino)-6-ethyl-5-isobutylpyrazine-2-carboxamide], the IC50 is 0.001 to 0.01 µM in the assay on MOLM-13, greater than 0.5 µM in the assay with K-562 and less than 0.001 µM with MV-4-11.

`CCc1nc(C(N)=O)c(Nc2ccc(F)c(CCNC(=O)CN(C)C(=O)/C=C/CN3CCC3)c2)nc1C1CC1` [Compound 607, (E)-3-((3-(2-(2-(4-(azetidin-1-yl)-N-methylbut-2-enamido)acetamido)ethyl)-4-fluorophenyl)amino)-5-cyclopropyl-6-ethylpyrazine-2-carboxamide]: the IC50 with MOLM-13 is 0.001 to 0.01 µM; in the assay on K-562, greater than 0.5 µM; in the assay on MV-4-11 it was 0.001 to 0.01 µM.
